Source: ChEMBL document CHEMBL1201862, “PubChem BioAssay data set” (2004)
Each block holds one compound with its values, some of them ahead of it. Active and inactive are the calls of the source.

What was measured:
[1] = target: T1, Sentrin-specific protease 8 (Homo sapiens, UniProt Q96LD8); type: functional;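 also: luminescence read-out of SENP8 inhibition, dose-response confirmation following an ultra-high-throughput screen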
T1 sequence (Q96LD8 whole entry): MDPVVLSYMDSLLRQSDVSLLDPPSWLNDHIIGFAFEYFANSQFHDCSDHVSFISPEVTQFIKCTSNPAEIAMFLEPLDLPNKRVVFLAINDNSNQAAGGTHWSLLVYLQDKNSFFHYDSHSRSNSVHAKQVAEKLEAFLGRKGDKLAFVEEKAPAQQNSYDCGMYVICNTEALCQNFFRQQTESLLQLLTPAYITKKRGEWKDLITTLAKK

[2] = target: T2, Mannose-6-phosphate isomerase (Homo sapiens, UniProt P34949); experiment: MPI inhibition at elevated mannose 6-phosphate – biochemical, fluorescence intensity, high mannose 6-phosphate, primary screen (AID 1220)
T2 sequence (P34949 whole entry): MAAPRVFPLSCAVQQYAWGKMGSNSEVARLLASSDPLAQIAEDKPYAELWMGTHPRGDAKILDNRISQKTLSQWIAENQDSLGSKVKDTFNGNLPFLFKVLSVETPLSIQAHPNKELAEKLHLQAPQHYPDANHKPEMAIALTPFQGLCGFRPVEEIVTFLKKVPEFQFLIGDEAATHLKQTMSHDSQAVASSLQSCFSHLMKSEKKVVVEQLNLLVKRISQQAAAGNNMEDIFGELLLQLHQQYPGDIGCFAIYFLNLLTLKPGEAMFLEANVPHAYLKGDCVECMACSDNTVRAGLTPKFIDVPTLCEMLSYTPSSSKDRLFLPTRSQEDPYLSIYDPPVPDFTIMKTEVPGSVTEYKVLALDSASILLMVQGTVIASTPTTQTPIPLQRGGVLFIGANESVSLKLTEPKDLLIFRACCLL

[3] = target: T3, Dual specificity protein phosphatase 6 (Rattus norvegicus, UniProt Q64346); experiment: inhibition of rat DUSP6 enzyme activity – biochemical, in vitro, primary screen (AID 425)
T3 sequence (Q64346 whole entry): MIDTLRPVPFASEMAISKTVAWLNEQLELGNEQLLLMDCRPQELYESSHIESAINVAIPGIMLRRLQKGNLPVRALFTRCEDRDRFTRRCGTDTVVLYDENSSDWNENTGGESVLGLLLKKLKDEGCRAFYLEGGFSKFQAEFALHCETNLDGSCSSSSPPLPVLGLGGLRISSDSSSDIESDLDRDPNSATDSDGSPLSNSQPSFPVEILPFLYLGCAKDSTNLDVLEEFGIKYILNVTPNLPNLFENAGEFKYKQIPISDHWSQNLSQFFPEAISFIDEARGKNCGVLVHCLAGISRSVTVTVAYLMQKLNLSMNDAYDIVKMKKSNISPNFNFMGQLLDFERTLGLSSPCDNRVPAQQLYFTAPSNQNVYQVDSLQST

[4] = target: Leucine-rich repeat serine/threonine-protein kinase 2 (Homo sapiens, UniProt Q5S007); type: functional;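 also: value from a broad kinome-wide panel profiling study in which LRRK2 was one of the kinases tested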
[5] = target: Dual specificity tyrosine-phosphorylation-regulated kinase 1B (Homo sapiens, UniProt Q9Y463); experiment: Navigating the Kinome. Panel member name: DYRK1B; type: functional
[6] = target: Dual specificity tyrosine-phosphorylation-regulated kinase 1A (Homo sapiens, UniProt Q13627); type: functional;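 also: measured against DYRK1A as one member of a broad kinome profiling panel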
[7] = target: Protein kinase C theta type (Homo sapiens, UniProt Q04759); experiment: Navigating the Kinome. Panel member name: PRKCQ; type: functional
LIM domain kinase 1 = LIM domain kinase 1 (Homo sapiens, UniProt P53667); experiment: Navigating the Kinome. Panel member name: LIMK1; type: functional
[8] = target: Leukocyte tyrosine kinase receptor (Homo sapiens, UniProt P29376); experiment: Navigating the Kinome. Panel member name: LTK; type: functional
[9] = target: Serine/threonine-protein kinase PAK 1 (Homo sapiens, UniProt Q13153); type: functional
[10] = target: 3-phosphoinositide-dependent protein kinase 1 (Homo sapiens, UniProt O15530); type: functional;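 also: value comes from the Navigating the Kinome panel, PDPK1 member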
[11] = target: Vascular endothelial growth factor receptor 3 (Homo sapiens, UniProt P35916); type: functional;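 also: value from a kinome-wide profiling panel, with FLT4 as the panel member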
[12] = target: Non-receptor tyrosine-protein kinase TYK2 (Homo sapiens, UniProt P29597); type: functional
[13] = target: Mitogen-activated protein kinase kinase kinase 20 (Homo sapiens, UniProt Q9NYL2); type: functional
[14] = target: Casein kinase I isoform gamma-1 (Homo sapiens, UniProt Q9HCP0); type: functional;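 also: measured as the CSNK1G1 member of a kinome profiling panel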
[15] = target: Protein-tyrosine kinase 6 (Homo sapiens, UniProt Q13882); type: functional
[16] = target: MAP kinase-interacting serine/threonine-protein kinase 2 (Homo sapiens, UniProt Q9HBH9); type: functional
[17] = target: cGMP-dependent protein kinase 1 (Homo sapiens, UniProt Q13976); type: functional;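 also: value from a kinome panel screen with PRKG1 as the panel member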
[18] = target: Serine/threonine-protein kinase N2 (Homo sapiens, UniProt Q16513); type: functional
[19] = target: Serine/threonine-protein kinase Chk2 (Homo sapiens, UniProt O96017); type: functional;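 also: CHEK2 entry within a kinome-wide screening panel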

cGMP-dependent protein kinase 1, sequence (Q13976 whole entry): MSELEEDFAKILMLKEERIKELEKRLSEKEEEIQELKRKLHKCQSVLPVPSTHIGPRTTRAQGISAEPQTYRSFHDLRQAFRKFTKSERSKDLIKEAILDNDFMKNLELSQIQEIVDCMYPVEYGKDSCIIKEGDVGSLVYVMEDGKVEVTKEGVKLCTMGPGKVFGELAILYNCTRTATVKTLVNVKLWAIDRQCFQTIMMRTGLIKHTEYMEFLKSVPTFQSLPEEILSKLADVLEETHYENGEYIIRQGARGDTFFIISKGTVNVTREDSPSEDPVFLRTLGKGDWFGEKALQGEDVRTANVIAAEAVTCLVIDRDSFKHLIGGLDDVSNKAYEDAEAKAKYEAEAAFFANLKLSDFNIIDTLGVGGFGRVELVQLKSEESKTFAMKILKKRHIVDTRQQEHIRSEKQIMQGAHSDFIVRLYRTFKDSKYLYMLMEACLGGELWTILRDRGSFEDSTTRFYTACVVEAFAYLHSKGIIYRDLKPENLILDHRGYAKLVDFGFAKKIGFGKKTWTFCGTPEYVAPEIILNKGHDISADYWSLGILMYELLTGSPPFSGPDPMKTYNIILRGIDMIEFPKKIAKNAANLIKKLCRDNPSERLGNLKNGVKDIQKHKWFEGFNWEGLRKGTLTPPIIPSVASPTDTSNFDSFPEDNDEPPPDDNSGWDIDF
Casein kinase I isoform gamma-1, sequence (Q9HCP0 whole entry, canonical isoform): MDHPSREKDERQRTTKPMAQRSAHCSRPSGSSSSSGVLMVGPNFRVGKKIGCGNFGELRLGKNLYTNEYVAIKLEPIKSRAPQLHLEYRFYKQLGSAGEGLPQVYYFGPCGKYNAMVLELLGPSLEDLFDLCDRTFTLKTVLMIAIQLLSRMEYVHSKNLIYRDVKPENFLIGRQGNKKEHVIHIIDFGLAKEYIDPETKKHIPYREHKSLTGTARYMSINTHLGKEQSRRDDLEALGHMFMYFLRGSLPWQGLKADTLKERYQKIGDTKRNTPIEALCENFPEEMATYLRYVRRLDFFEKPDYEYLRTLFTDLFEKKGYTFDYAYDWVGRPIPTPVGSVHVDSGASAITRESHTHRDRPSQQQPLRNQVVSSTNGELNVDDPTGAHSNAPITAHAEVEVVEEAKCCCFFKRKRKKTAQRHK
Mitogen-activated protein kinase kinase kinase 20, sequence (Q9NYL2 whole entry, canonical isoform): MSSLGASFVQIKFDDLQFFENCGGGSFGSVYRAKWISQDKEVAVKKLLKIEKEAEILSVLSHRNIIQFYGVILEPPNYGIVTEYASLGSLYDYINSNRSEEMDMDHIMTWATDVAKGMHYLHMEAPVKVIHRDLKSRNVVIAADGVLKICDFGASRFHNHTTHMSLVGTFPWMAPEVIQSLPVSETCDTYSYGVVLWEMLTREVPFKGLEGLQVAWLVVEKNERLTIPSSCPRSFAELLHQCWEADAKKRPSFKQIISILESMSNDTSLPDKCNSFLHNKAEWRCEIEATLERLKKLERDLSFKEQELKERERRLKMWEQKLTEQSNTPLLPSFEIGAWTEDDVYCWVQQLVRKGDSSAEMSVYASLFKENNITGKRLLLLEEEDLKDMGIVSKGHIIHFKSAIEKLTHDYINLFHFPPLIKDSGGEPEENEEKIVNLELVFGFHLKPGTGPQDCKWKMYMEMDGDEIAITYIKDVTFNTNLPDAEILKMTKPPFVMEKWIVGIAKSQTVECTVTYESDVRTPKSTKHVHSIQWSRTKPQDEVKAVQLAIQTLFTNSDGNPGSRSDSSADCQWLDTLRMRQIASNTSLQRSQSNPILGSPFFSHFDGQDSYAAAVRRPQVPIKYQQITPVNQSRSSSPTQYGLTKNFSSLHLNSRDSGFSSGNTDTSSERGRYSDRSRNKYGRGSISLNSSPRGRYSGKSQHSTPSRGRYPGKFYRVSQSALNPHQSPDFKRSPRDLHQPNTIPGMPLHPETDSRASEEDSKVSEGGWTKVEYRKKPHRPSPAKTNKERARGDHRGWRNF
Serine/threonine-protein kinase PAK 1, sequence (Q13153 whole entry): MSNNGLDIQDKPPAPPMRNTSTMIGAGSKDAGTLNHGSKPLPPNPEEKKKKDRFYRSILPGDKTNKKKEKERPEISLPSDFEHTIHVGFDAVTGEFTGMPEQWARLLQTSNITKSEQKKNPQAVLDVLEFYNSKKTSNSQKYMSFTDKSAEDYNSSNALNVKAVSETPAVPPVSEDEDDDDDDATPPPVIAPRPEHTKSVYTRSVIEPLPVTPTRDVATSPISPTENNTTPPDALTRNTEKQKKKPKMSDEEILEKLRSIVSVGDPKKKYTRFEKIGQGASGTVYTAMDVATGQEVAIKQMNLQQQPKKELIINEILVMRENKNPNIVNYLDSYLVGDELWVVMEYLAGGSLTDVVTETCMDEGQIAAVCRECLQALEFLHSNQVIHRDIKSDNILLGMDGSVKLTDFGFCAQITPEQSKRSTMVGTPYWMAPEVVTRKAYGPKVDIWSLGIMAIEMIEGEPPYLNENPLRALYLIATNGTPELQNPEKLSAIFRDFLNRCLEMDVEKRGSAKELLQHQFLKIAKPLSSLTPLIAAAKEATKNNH
LIM domain kinase 1, sequence (P53667 whole entry, the tested form may be a part): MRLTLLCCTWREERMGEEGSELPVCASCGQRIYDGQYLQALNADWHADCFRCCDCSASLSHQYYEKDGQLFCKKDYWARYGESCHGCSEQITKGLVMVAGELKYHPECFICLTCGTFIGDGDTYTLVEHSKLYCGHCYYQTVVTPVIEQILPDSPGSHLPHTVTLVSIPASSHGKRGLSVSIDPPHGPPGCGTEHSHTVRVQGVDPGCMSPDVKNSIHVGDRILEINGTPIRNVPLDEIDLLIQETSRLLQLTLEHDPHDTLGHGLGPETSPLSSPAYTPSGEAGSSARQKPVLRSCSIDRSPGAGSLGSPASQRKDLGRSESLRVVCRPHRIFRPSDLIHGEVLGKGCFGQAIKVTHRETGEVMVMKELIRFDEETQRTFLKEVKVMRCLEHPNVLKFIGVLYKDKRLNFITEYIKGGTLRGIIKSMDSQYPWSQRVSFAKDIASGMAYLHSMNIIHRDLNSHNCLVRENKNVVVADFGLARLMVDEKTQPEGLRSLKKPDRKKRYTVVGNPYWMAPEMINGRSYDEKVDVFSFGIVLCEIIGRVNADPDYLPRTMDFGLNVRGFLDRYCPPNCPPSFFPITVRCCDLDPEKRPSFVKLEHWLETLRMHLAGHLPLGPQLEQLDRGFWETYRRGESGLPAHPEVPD
3-phosphoinositide-dependent protein kinase 1, sequence (O15530 whole entry): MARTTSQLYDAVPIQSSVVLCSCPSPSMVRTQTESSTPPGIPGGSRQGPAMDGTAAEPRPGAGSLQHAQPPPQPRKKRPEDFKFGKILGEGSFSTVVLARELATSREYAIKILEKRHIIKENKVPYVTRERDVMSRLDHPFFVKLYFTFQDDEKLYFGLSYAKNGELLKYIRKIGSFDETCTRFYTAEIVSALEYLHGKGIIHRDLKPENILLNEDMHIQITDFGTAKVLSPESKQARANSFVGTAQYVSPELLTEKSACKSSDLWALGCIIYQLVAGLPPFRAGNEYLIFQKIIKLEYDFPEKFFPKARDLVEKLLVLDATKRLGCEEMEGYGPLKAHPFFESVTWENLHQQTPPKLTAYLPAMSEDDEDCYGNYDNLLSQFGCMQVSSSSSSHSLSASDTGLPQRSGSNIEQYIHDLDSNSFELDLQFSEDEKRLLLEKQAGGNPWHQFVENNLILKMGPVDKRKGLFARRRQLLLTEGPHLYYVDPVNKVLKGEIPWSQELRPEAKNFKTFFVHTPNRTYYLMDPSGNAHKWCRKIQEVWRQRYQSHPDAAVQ
Dual specificity tyrosine-phosphorylation-regulated kinase 1B, sequence (Q9Y463 whole entry): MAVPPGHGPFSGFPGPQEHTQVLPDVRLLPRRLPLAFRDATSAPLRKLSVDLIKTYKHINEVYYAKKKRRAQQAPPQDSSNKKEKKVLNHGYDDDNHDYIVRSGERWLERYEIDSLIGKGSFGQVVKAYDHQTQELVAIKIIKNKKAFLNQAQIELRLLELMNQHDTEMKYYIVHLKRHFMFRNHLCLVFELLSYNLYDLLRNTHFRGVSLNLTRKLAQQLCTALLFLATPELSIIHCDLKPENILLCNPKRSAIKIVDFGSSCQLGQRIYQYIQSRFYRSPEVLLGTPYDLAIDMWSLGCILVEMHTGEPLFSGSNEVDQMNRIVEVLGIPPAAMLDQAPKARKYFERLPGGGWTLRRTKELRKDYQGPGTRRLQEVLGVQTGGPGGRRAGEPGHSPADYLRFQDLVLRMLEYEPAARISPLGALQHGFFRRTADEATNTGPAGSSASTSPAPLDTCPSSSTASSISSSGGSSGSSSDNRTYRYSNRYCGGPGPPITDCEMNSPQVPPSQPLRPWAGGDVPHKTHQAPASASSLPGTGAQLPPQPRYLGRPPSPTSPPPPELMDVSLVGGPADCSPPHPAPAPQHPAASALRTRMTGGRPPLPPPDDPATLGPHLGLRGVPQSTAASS
Protein kinase C theta type, sequence (Q04759 whole entry, the tested form may be a part): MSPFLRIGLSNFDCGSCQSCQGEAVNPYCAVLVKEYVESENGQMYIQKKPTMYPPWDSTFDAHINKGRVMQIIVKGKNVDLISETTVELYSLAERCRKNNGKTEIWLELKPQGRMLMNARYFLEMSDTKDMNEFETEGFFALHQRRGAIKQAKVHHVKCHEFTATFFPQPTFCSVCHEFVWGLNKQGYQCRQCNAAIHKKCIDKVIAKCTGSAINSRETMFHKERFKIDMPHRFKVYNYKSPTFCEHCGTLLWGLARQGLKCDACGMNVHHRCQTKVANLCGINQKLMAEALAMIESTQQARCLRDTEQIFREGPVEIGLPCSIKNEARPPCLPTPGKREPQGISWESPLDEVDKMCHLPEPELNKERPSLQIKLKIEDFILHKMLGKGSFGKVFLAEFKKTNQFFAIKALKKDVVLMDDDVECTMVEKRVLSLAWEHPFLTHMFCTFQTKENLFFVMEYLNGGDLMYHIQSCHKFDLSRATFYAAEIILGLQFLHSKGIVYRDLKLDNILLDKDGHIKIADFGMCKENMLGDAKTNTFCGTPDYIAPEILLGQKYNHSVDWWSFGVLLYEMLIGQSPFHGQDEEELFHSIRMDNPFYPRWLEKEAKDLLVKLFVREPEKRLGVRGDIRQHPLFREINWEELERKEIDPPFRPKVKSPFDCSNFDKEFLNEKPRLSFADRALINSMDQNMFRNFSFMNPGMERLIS

IC50 [2]: > 50000 nM (not active) | IC50 [3]: > 100000 nM (not active)
SMILES: COc1ccc(-n2c(NC(=O)c3ccco3)c(C#N)c3nc4ccccc4nc32)cc1
IC50 [1]: 7570 nM (active)

Ki [4]: > 2510 nM (inactive) | Ki [5]: > 2510 nM (inactive) | Ki [6]: > 2000 nM (inactive) | Ki [7]: > 2510 nM (inactive) | Ki (LIM domain kinase 1): > 3160 nM (inactive) | Ki [8]: > 2510 nM (inactive)
SMILES: [2H]C([2H])([2H])Oc1cccc(C(C)NC(=O)c2sc(-c3ccncc3)nc2C)c1 (stereo not given)

Ki [9]: 794 nM (active) | Ki [10]: 2000 nM (active) | Ki [11]: 1580 nM (active) | Ki [12]: > 2000 nM (inactive) | Ki [13]: 7940 nM (active) | Ki [14]: 126 nM (active) | Ki [15]: > 2510 nM (inactive) | Ki [16]: 251 nM (active) | Ki [17]: 7.94 nM (active) | Ki [18]: 20 nM (active) | Ki [19]: 398 nM (active)
SMILES: Cc1n[nH]c2ccc(-c3cncc(OCC(N)Cc4ccc(Cl)c(Cl)c4)c3)cc12 (stereo not given)
